Data taken from patent US10925876B2, “Methods for using triazolo-pyrazinyl soluble guanylate cyclase activators in fibrotic disorders” (Merck Sharp & Dohme Corp., priority 2016, dated 2021).

Key:
sGC α1/β1 heterodimer = target: T1, sGC α1/β1 heterodimer (Homo sapiens, UniProt Q02108+Q02153); assay: Cell-Based sGC Functional Assay (CASA Assay), cGMP generation in CHO-K1/sGC cells;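 note: reference Compound A is a published heme-dependent sGC activator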; settings: maximum cGMP production of Compound A set to 100% activation, read-out: % Act. (percent activation relative to Compound A)
T1 construct: expressed in transfected cells
T1 sequence (Q02108 1-690): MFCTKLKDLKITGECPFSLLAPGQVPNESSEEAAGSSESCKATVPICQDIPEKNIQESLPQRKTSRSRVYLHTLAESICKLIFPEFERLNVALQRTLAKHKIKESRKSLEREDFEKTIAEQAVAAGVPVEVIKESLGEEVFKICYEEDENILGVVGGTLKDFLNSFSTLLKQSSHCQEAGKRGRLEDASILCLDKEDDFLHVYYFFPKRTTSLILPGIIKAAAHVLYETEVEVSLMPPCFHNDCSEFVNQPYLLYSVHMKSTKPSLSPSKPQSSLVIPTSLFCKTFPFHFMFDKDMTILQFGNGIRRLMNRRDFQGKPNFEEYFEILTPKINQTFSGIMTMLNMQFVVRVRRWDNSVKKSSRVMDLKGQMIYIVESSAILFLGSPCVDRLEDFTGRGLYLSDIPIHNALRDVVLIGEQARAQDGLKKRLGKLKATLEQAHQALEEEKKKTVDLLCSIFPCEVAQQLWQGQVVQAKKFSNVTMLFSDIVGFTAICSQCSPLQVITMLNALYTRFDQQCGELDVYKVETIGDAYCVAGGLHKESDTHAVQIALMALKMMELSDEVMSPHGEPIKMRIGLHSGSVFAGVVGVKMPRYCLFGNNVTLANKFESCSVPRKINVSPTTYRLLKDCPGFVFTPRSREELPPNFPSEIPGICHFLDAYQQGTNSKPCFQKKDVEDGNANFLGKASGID
T1 sequence (Q02153 1-619): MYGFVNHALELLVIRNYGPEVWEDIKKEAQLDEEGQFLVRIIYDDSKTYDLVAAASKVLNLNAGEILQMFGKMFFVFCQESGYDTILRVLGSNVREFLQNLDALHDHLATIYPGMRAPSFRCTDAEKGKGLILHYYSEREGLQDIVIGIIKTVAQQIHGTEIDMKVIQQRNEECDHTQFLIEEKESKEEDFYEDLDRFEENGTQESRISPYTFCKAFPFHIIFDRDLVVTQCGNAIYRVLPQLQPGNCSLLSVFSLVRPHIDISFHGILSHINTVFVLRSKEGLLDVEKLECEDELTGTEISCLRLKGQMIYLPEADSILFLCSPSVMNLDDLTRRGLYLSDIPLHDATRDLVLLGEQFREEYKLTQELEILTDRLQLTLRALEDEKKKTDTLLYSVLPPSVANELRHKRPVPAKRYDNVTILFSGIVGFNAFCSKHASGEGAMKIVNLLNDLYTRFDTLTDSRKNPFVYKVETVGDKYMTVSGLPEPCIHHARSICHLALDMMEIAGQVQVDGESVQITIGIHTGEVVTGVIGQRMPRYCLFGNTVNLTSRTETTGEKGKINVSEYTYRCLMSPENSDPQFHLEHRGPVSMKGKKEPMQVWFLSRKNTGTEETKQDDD
Outline: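 Intracellular cGMP quantified by HTRF competition after 1 h, 37 °C compound exposure, with or without 1 μM DETA-NO, in stable CHO-K1/sGC α1/β1 cells (4×10^5/mL; buffer with 0.5 mM IBMX, 5 mM MgCl2, 10 mM HEPES, 0.05% BSA; 2.5% DMSO). Activation normalized to reference Compound A maximum; 4P fit.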

[1] = tested on: Spontaneously hypertensive rats (SHR); assay: Acute Efficacy in Spontaneously Hypertensive Rats (SHR), telemetry blood pressure; type: in vivo, rat; settings: single oral gavage
From the text: Spontaneously hypertensive rats (SHR, male, Charles River) were implanted with DSI TA11PA-C40 telemetry device (Data Sciences, Inc., St. Paul, Minn.) under isoflurane or ketamine/metomidine anesthesia. The telemetry unit catheter was inserted into the descending aorta via the femoral artery and the telemetry device was implanted subcutaneously in the left flank area. Animals were allowed to recover from surgery for 14 days before the start of any studies. Blood pressure, heart rate, and activity signals from conscious, freely moving rats were recorded continuously for 30 seconds every 10 minutes. On the day prior to administration of compound, a single oral dose of vehicle (10% transcutol/20% Cremophor/70% water) was administered to all animals to establish baseline control data. The blood pressure lowering efficacy of compound (PO) or vehicle was evaluated following a single oral gavage. Data were collected as hourly averages, and changes in blood pressure were calculated by subtracting control baseline data on an hourly basis. Animals were maintained on normal diet with a 12 hour light-dark cycle.
Maximum peak decreases of systolic blood pressure (SBP) in SHR at a particular P.O. dose (mpk milligrams per kilogram) for the following representative compounds are provided. Category A=SBP in SHRs <20 mmHg; Category B=SBP in SHRs 20-40 mmHg; Category C=SBP in SHRs >40 mmHg.

SMILES | Emax (sGC α1/β1 heterodimer) | further results
Nc1nc(-c2cn3ncnc3c(CCC(F)(F)C(F)(F)F)n2)nc2c1C(c1nnc(C3CC3)o1)(C1CC1)C(=O)N2 (centres unmarked) [Example 107A, 4-amion-5-cyclopropyl-5-(5-cyclopropyl-1,3,4-oxadiazol-2-yl)-2-(8-(3,3,4,4,4-pentafluorobutyl)-[1,2,4]triazolo[1,5-a]pyrazin-6-yl)-5H-pyrrolo[2,3-d]pyrimidin-6(7H)-one] | 76% | Maximum peak decrease of systolic blood pressure (SBP) in SHR, Cat. ([1]; P.O. 3 mpk): C (Category C=SBP in SHRs >40 mmHg)
CCCc1nc(-c2nc(O)c3c(n2)NC(=O)[C@@]3(C)c2ccc(F)cc2)cn2ncnc12 [Example 165A, (S)-5-(4-fluorophenyl)-4-hydroxy-5-methyl-2-(8-propyl-[1,2,4]triazolo[1,5-a]pyrazin-6-yl)-5,7-dihydro-6H-pyrrolo[2,3-d]pyrimidin-6-one] | 114% | Maximum peak decrease of systolic blood pressure (SBP) in SHR, Cat. ([1]; P.O. 3 mpk): B (Category B=SBP in SHRs 20-40 mmHg)
Cc1ccc(C2(C3CC3)C(=O)Nc3nc(-c4cn5ncnc5c(CCC(F)(F)C(F)(F)F)n4)nc(N)c32)nc1 (racemic) [Example 17B, 4-amino-5-cyclopropyl-5-(5-methylpyridin-2-yl)-2-(8-(3,3,4,4,4-pentafluorobutyl)-[1,2,4]triazolo[1,5-a]pyrazin-6-yl)-5H-pyrrolo[2,3-d]pyrimidin-6(7H)-one] | 119% | Maximum peak decrease of systolic blood pressure (SBP) in SHR, Cat. ([1]; P.O. 0.3 mpk): A (Category A=SBP in SHRs <20 mmHg)
CC1(c2ccccn2)C(=O)Nc2nc(-c3cn4ncnc4c(CCC(F)(F)C(F)(F)F)n3)nc(N)c21 (centres unmarked) [Example 11B, 4-amino-5-methyl-2-(8-(3,3,4,4,4-pentafluorobutyl)-[1,2,4]triazolo[1,5-a]pyrazin-6-yl)-5-(pyridin-2-yl)-5H-pyrrolo[2,3-d]pyrimidin-6(7H)-one] | 208% | Maximum peak decrease of systolic blood pressure (SBP) in SHR, Cat. ([1]; P.O. 0.3 mpk): B (Category B=SBP in SHRs 20-40 mmHg)
CC1(c2ccccc2)C(=O)Nc2nc(-c3cn4ncnc4c(CCC(F)(F)C(F)(F)F)n3)nc(N)c21 (centres unmarked) [Example 12B, 4-amino-5-methyl-2-(8-(3,3,4,4,4-pentafluorobutyl)-[1,2,4]triazolo[1,5-a]pyrazin-6-yl)-5-phenyl-5H-pyrrolo[2,3-d]pyrimidin-6(7H)-one] | 122% | Maximum peak decrease of systolic blood pressure (SBP) in SHR, Cat. ([1]; P.O. 0.1 mpk): B (Category B=SBP in SHRs 20-40 mmHg)
CCCc1nc(-c2nc(O)c3c(n2)NC(=O)C3(c2ccc(F)c(F)c2)C2CC2)cn2ncnc12 (centres unmarked) [Example 167A, 5-cyclopropyl-5-(3,4-difluorophenyl)-4-hydroxy-2-(8-propyl-[1,2,4]triazolo[1,5-a]pyrazin-6-yl)-5H-pyrrolo[2,3-d]pyrimidin-6(7H)-one] | 70% | 
COc1ccc(C2(C)C(=O)Nc3nc(-c4cn5ncnc5c(CCCC(F)(F)F)n4)nc(O)c32)nc1 (centres unmarked) [Example 148A, 4-hydroxy-5-(5-methoxypyridin-2-yl)-5-methyl-2-(8-(4,4,4-trifluorobutyl)-[1,2,4]triazolo[1,5-a]pyrazin-6-yl)-5H-pyrrolo[2,3-d]pyrimidin-6(7H)-one] | 96% | 
CC1(c2ccc(F)c(F)c2)C(=O)Nc2nc(-c3cn4ncnc4c(CCC(F)(F)C(F)(F)F)n3)nc(O)c21 (centres unmarked) [Example 169B, 5-(3,4-Difluorophenyl)-4-hydroxy-5-methyl-2-(8-(3,3,4,4,4-pentafluorobutyl)-[1,2,4]triazolo[1,5-a]pyrazin-6-yl)-5,7-dihydro-6H-pyrrolo[2,3-d]pyrimidin-6-one] | 116% | 
CCCCc1nc(-c2nc(N)c3c(n2)NC(=O)C3(C)c2ccc(Cl)cn2)cn2ncnc12 (centres unmarked) [Example 69A, 4-amino-2-(8-butyl-[1,2,4]triazolo[1,5-a]pyrazin-6-yl)-5-(5-chloropyridin-2-yl)-5-methyl-5H-pyrrolo[2,3-d]pyrimidin-6(7H)-one] | 158% | 
CC1(c2ncc(C(F)(F)F)cn2)C(=O)Nc2nc(-c3cn4ncnc4c(CCCC(F)(F)F)n3)nc(N)c21 (racemic) [Example 51B, 4-amino-5-methyl-2-(8-(4,4,4-trifluorobutyl)-[1,2,4]triazolo[1,5-a]pyrazin-6-yl)-5-(5-(trifluoromethyl)pyrimidin-2-yl)-5H-pyrrolo[2,3-d]pyrimidin-6(7H)-one] | 144% | 
CC1(c2ccc(C#N)cn2)C(=O)Nc2nc(-c3cn4ncnc4c(CCCC(F)(F)F)n3)nc(N)c21 (centres unmarked) [Example 48A, 6-(4-amino-5-methyl-6-oxo-2-(8-(4,4,4-trifluorobutyl)-[1,2,4]triazolo[1,5-a]pyrazin-6-yl)-6,7-dihydro-5H-pyrrolo[2,3-d]pyrimidin-5-yl)nicotinonitrile] | 85% | 
CCCCc1nc(-c2nc(N)c3c(n2)NC(=O)C3(C)c2ccc(Cl)cc2)cn2ncnc12 (centres unmarked) [Example 63A, 4-amino-2-(8-butyl-[1,2,4]triazolo[1,5-a]pyrazin-6-yl)-5-(4-chlorophenyl)-5-methyl-5H-pyrrolo[2,3-d]pyrimidin-6(7H)-one] | 187% | 
CCCCc1nc(-c2nc(N)c3c(n2)NC(=O)C3(C)c2ccc(Cl)c(F)c2)cn2ncnc12 (centres unmarked) [Example 62B, 4-amino-2-(8-butyl-[1,2,4]triazolo[1,5-a]pyrazin-6-yl)-5-(4-chloro-3-fluorophenyl)-5-methyl-5H-pyrrolo[2,3-d]pyrimidin-6(7H)-one] | 267% | 
CCCc1nc(-c2nc(O)c3c(n2)NC(=O)C3(C)c2ccc(Cl)cc2)cn2nc(C)nc12 (centres unmarked) [Example 168A, 5-(4-chlorophenyl)-4-hydroxy-5-methyl-2-(2-methyl-8-propyl-[1,2,4]triazolo[1,5-a]pyrazin-6-yl)-5H-pyrrolo[2,3-d]pyrimidin-6(7H)-one] | 77% | 
CC1(c2ccc(Cl)c(F)c2)C(=O)Nc2nc(-c3cn4ncnc4c(CCC(F)(F)C(F)(F)F)n3)nc(N)c21 (centres unmarked) [Example 5B, 4-amino-5-(4-chloro-3-fluorophenyl)-5-methyl-2-(8-(3,3,4,4,4-pentafluorobutyl)-[1,2,4]triazolo[1,5-a]pyrazin-6-yl)-5H-pyrrolo[2,3-d]pyrimidin-6(7H)-one] | 147% | 
O=C1Nc2nc(-c3cn4ncnc4c(CCCC(F)(F)F)n3)nc(O)c2C1(c1ccc(F)cn1)C1CC1 (centres unmarked) [Example 150A, 5-cyclopropyl-5-(5-fluoropyridin-2-yl)-4-hydroxy-2-(8-(4,4,4-trifluorobutyl)-[1,2,4]triazolo[1,5-a]pyrazin-6-yl)-5,7-dihydro-6H-pyrrolo[2,3-d]pyrimidin-6-one] | 74% | 
CC1(c2ccc(Cl)cn2)C(=O)Nc2nc(-c3cn4ncnc4c(CCC(F)(F)C(F)(F)F)n3)ncc21 (centres unmarked) [Example 175A, 5-(5-chloropyridin-2-yl)-5-methyl-2-(8-(3,3,4,4,4-pentafluorobutyl)-[1,2,4]triazolo[1,5-a]pyrazin-6-yl)-5H-pyrrolo[2,3-d]pyrimidin-6(7H)-one] | 115% | 
N#Cc1ccc(C2(C3CC3)C(=O)Nc3nc(-c4cn5ncnc5c(CCCC(F)(F)F)n4)nc(N)c32)nc1 (centres unmarked) [Example 117A, 6-(4-Amino-5-cyclopropyl-6-oxo-2-(8-(4,4,4-trifluorobutyl)-[1,2,4]triazolo[1,5-a]pyrazin-6-yl)-6,7-dihydro-5H-pyrrolo[2,3-d]pyrimidin-5-yl)nicotinonitrile] | 140% | 
